pIC50: −log10 of the molar value. Converted amounts (≈) assume the structure as drawn.
molecular target: T1, Mitogen-activated protein kinase kinase kinase 7 (Homo sapiens) (UniProt O43318); experiment: Competitive inhibition of TAK1 overexpressed in Hela cells assessed as TAK1 autophosphorylation on Thr187 by ELISA
T1 sequence (whole entry): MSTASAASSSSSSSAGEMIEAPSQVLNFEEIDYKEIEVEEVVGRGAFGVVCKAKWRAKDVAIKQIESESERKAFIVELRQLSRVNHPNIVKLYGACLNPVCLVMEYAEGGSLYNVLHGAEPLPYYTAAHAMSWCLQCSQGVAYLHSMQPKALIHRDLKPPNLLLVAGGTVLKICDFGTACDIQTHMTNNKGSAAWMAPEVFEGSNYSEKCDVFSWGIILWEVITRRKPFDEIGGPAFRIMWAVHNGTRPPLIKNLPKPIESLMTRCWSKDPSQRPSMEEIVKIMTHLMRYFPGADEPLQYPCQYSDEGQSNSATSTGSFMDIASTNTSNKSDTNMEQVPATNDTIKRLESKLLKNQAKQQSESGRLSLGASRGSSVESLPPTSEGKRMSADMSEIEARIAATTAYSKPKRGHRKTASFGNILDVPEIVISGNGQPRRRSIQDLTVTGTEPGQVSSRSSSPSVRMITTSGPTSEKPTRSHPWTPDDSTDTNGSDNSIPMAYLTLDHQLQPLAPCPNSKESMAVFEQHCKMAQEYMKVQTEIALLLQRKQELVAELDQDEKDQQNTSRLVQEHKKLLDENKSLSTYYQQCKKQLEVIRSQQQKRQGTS

| IC50 [µM] | SMILES |
| --- | --- |
| 11 | O=C1Nc2ccccc2/C1=N/N=C1\SCC(=O)N1c1ccc(O)cc1 |

molecular target: TAK1/TAB1 (Homo sapiens) (UniProt Q15750+O43318); experiment: Competitive inhibition of recombinant TAK1-TAB1 assessed as [33P]gamma-ATP incorporation into substrate histone H1 peptide at 10 uM by filter plate assay; format: protein-complex assay

| SMILES | inhibition [%] |
| --- | --- |
| O=C1Nc2ccccc2/C1=C\c1c[nH]cn1 | 32 |
| O=C1Nc2ccccc2/C1=N/N=C1\SCC(=O)N1c1cccc(Oc2ccccc2)c1 | 0 |
| Cc1c(Cl)ccc2c1NC(=O)/C2=N\N=C1/SCC(=O)N1c1ccc(O)cc1 | 0 |
| O=C1Nc2ccccc2/C1=N/N=C1\SCC(=O)N1c1ccc(OCc2ccccc2)cc1 | 6 |

Second part, the compound after the results:

| inhibition [%] | SMILES |
| --- | --- |
| 4 | O=C1Nc2cccc(Cl)c2/C1=N/N=C1\SCC(=O)N1c1ccc(O)cc1 |
| 52 | O=C1Nc2ccccc2C1c1ccnc(Nc2ccccc2O)n1 (configuration not stated) |
| 0 | Cc1ccc(N2C(=O)CS/C2=N\N=C2/C(=O)Nc3ccccc32)cc1 |
| 39 | C/C(C(=O)c1ccccc1)=C1/C(=O)Nc2ccccc21 |
| 21 | O=C1Nc2ccccc2/C1=C/C(=O)c1ccc(O)cc1O |
| 39 | O=C1Nc2ccccc2C1c1ccnc(Nc2ccc(O)cc2)n1 (configuration not stated) |
| 0 | O=C1Nc2ccccc2/C1=N/N=C1\N=NCN1c1ccc(O)cc1 |

tested on: HeLa; experiment: Cytotoxicity against human HeLa cells; format: cell-based

| SMILES | pIC50 |
| --- | --- |
| O=C1Nc2ccccc2/C1=N/N=C1\SCC(=O)N1c1ccc(O)cc1 | < 4.00 |

molecular target: TAK1/TAB1 (Homo sapiens, UniProt O43318); experiment: Competitive inhibition of recombinant TAK1-TAB1 assessed as [33P]gamma-ATP incorporation into substrate histone H1 peptide by filter plate assay; format: protein-complex assay
Sequence (Q15750 whole entry, one chain of several): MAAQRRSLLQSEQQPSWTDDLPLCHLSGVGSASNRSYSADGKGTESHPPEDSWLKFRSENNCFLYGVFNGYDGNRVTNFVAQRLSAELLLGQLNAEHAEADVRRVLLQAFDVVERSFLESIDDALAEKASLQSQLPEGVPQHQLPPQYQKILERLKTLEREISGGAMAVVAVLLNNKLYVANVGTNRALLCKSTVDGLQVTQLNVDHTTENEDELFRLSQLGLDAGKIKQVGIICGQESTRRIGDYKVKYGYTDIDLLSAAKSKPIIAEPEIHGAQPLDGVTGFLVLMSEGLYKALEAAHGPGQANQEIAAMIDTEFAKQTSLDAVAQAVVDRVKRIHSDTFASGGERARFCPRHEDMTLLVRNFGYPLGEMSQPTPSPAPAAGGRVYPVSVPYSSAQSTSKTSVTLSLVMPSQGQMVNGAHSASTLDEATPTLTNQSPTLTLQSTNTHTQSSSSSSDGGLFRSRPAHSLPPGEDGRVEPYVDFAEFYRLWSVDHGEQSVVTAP

| SMILES | pIC50 |
| --- | --- |
| O=C1CS/C(=N\N=C2/C(=O)Nc3ccccc32)N1 | < 5.30 |
| O=C1Nc2ccccc2/C1=N/N=C1\SCC(=O)N1Cc1ccncc1 | 5.09 |
| O=C1Nc2ccccc2/C1=C\c1ccc(O)c(O)c1O | 5.77 |
| O=C1Nc2ccccc2/C1=N/N=C1\SCC(=O)N1CC1CCCN1 (configuration not stated) | 4.52 |
| O=C1Nc2ccc(OC(F)(F)F)cc2/C1=N/N=C1\SCC(=O)N1c1ccc(O)cc1 | 5.52 |
| CCC1S/C(=N\N=C2/C(=O)Nc3ccc(Cl)cc32)N(c2ccc(O)cc2)C1=O (configuration not stated) | < 5.30 |
| COc1ccc(N2C(=O)CS/C2=N\N=C2/C(=O)Nc3ccccc32)cc1 | < 5.30 |
| O=C1Nc2ccccc2/C1=C/C(=O)c1cccc(O)c1 | 5.39 |
| O=C1Nc2ccccc2/C1=C/C(=O)c1ccc(O)c(O)c1 | 6.25 |

The remaining lines, values ahead:

| pIC50 | SMILES |
| --- | --- |
| 6.20 | CC1S/C(=N\N=C2/C(=O)Nc3ccc(Cl)cc32)N(c2ccc(O)cc2)C1=O (configuration not stated) |
| 7.01 | Cc1ccc2c(c1)/C(=N/N=C1\SCC(=O)N1c1ccc(O)cc1)C(=O)N2 |
| 4.54 | O=C1Nc2ccccc2/C1=N/N=C1\SCC(=O)N1c1cccc(O)c1 |
| 7.68 | O=C1Nc2ccc(Cl)cc2/C1=N/N=C1\SCC(=O)N1c1ccc(O)cc1 |
| < 5.30 | O=C1Nc2ccccc2/C1=C\c1ccc(O)c(O)c1 |
| 7.00 | O=C1Nc2ccc(F)cc2/C1=N/N=C1\SCC(=O)N1c1ccc(O)cc1 |
| 4.60 | O=C1Nc2ccccc2/C1=N/N=C1\SCC(=O)N1c1cnccc1O |
| 8.05 | O=C1Nc2ccc(Br)cc2/C1=N/N=C1\SCC(=O)N1c1ccc(O)cc1 |
| < 5.30 | CC(C)C1S/C(=N\N=C2/C(=O)Nc3ccc(Cl)cc32)N(c2ccc(O)cc2)C1=O (configuration not stated) |
| 7.34 | O=C1Nc2ccccc2/C1=N/N=C1\SCC(=O)N1c1ccc(O)cc1 |
| 5.24 | O=C1Nc2ccccc2/C1=N/N=C1\SCC(=O)N1c1ccccc1O |
| < 5.30 | O=C1Nc2ccccc2/C1=C/C(=O)c1ccccc1 |
| < 4.30 | CN(C)c1ccc(N2C(=O)CS/C2=N\N=C2/C(=O)Nc3ccccc32)cc1 |

tested on: not listed separately; experiment: Solubility in phosphate buffer at pH 7.4; format: physicochemical

| solubility [µM] | SMILES |
| --- | --- |
| 3.1 (≈ 1.34 µg/mL) | O=C1Nc2ccc(Br)cc2/C1=N/N=C1\SCC(=O)N1c1ccc(O)cc1 |
| 65 (≈ 22.9 µg/mL) | O=C1Nc2ccccc2/C1=N/N=C1\SCC(=O)N1c1ccc(O)cc1 |
